Laboratory results as given in the NIST ThermoML archive (doi:10.1021/je4009238).

Legend:
[1] = refractive index (Na D-line) (dimensionless); settings: 101.33 kPa, Liquid
[2] = 101 kPa, Liquid
[3] = xn = mol fraction of the nth substance listed; settings: 101 kPa, Liquid
[4] = refractive index (Na D-line) (dimensionless); xn = mol fraction of the nth substance listed; settings: 101 kPa, Liquid

CCCCCCn1cc[n+](C)c1.[Cl-] [1-hexyl-3-methylimidazolium chloride]
Settings	mass density, 288.15 K [kg/m3]	mass density, 298.15 K [kg/m3]	mass density, 308.15 K [kg/m3]	mass density, 318.15 K [kg/m3]	refractive index, 288.15 K	refractive index, 298.15 K	refractive index, 308.15 K	refractive index, 318.15 K	viscosity, 308.15 K [mPa·s]	viscosity, 318.15 K [mPa·s]
[1]	–	–	–	–	1.5125	1.50953	1.50667	1.5039	–	–
[2]	1047.99	1042.2	1036.43	1030.62	–	–	–	–	2044.2	884.2

CCCCCCCC[n+]1ccn(C)c1.[Cl-] [1-methyl-3-octylimidazolium chloride] + CN(C)C=O
Settings	mass density, [3] [kg/m3]	refractive index, [4]	viscosity, [3] [mPa·s]
288.15 K, x1 = 0.0306	962.61	1.4392	1.617
288.15 K, x1 = 0.0647	970.04	1.44535	2.007
288.15 K, x1 = 0.1021	976.96	1.4504	2.763
288.15 K, x1 = 0.1457	983.52	1.45598	4.132
288.15 K, x1 = 0.1939	989.54	1.46074	5.958
288.15 K, x1 = 0.2496	995.13	1.46531	8.425
288.15 K, x1 = 0.3143	1000.4	1.46967	13.28
288.15 K, x1 = 0.39	1005.26	1.47407	20.46
288.15 K, x1 = 0.4809	1009.79	1.47791	34.23
288.15 K, x1 = 0.5908	1013.76	1.48169	60.63
288.15 K, x1 = 0.7259	1017.15	1.48534	122.33
288.15 K, x1 = 1	1022.06	1.49008	–
298.15 K, x1 = 0.0306	953.41	1.43459	1.348
298.15 K, x1 = 0.0647	961.21	1.44113	1.629
298.15 K, x1 = 0.1021	968.34	1.44613	2.262
298.15 K, x1 = 0.1457	975.24	1.45203	3.234
298.15 K, x1 = 0.1939	981.46	1.45641	4.582
298.15 K, x1 = 0.2496	987.32	1.46173	6.215
298.15 K, x1 = 0.3143	992.89	1.46588	9.498
298.15 K, x1 = 0.39	997.98	1.47066	14.03
298.15 K, x1 = 0.4809	1002.82	1.47429	22.18
298.15 K, x1 = 0.5908	1006.97	1.47835	37.33
298.15 K, x1 = 0.7259	1010.6	1.48212	69.31
298.15 K, x1 = 1	1015.97	1.48709	–
308.15 K, x1 = 0.0306	944.19	1.43007	1.172
308.15 K, x1 = 0.0647	952.27	1.4361	1.448
308.15 K, x1 = 0.1021	959.68	1.44189	1.909
308.15 K, x1 = 0.1457	966.87	1.44766	2.615
308.15 K, x1 = 0.1939	973.37	1.45241	3.636
308.15 K, x1 = 0.2496	979.5	1.45731	4.753
308.15 K, x1 = 0.3143	985.36	1.46212	7.07
308.15 K, x1 = 0.39	990.69	1.46672	10.12
308.15 K, x1 = 0.4809	995.8	1.47089	15.15
308.15 K, x1 = 0.5908	1000.19	1.47504	24.36
308.15 K, x1 = 0.7259	1004.44	1.47897	43.04
308.15 K, x1 = 1	1009.8	1.48413	155.03
318.15 K, x1 = 0.0306	934.98	1.42562	1.013
318.15 K, x1 = 0.0647	943.27	1.43143	1.289
318.15 K, x1 = 0.1021	951.06	1.438	1.661
318.15 K, x1 = 0.1457	958.48	1.44342	2.182
318.15 K, x1 = 0.1939	965.3	1.44849	2.97
318.15 K, x1 = 0.2496	971.71	1.45347	3.753
318.15 K, x1 = 0.3143	977.79	1.4586	5.427
318.15 K, x1 = 0.39	983.45	1.46306	7.536
318.15 K, x1 = 0.4809	988.76	1.46765	10.77
318.15 K, x1 = 0.5908	993.39	1.47179	16.68
318.15 K, x1 = 0.7259	997.95	1.47589	28.25
318.15 K, x1 = 1	1003.62	1.48122	65.95

CN(C)C=O [dimethylformamide] + CCCCCCn1cc[n+](C)c1.[Cl-]
x2 = 0
Settings	mass density, [3] [kg/m3]	refractive index, [4]	viscosity, [3] [mPa·s]
288.15 K	953.79	1.43304	0.936
298.15 K	944.26	1.42858	0.825
308.15 K	934.69	1.42381	0.736
318.15 K	925.16	1.41909	0.665

CN(C)C=O [dimethylformamide] + CCn1cc[n+](C)c1.[Cl-]
x2 = 0
Settings	mass density, [3] [kg/m3]	refractive index, [4]	viscosity, [3] [mPa·s]
288.15 K	953.79	1.43304	0.936
298.15 K	944.26	1.42858	0.825
308.15 K	934.69	1.42381	0.736
318.15 K	925.16	1.41909	0.665

CCCCCCCC[n+]1ccn(C)c1.[Cl-] [1-methyl-3-octylimidazolium chloride]
Settings	mass density, 288.15 K [kg/m3]	mass density, 298.15 K [kg/m3]	mass density, 308.15 K [kg/m3]	mass density, 318.15 K [kg/m3]	refractive index, 288.15 K	refractive index, 298.15 K	refractive index, 308.15 K	refractive index, 318.15 K	viscosity, 308.15 K [mPa·s]	viscosity, 318.15 K [mPa·s]
[1]	–	–	–	–	1.49008	1.48709	1.48413	1.48122	–	–
[2]	1022.06	1015.97	1009.8	1003.62	–	–	–	–	155.03	65.95
